Results taken from patent US10597388B2, “Pyridazinone herbicides” (FMC CORPORATION, priority 2014, dated 2020).

How the values were obtained:
Assay in all cases: Test C greenhouse herbicide test, pre- and postemergence
Format in all cases: in vivo
[1] = test system: soybean (Glycine max)
Method in brief: (§1)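 Preemergence: seeds sown in a loam soil–sand blend and sprayed with test chemicals in a non-phytotoxic solvent mixture containing surfactant. Postemergence: plants grown in peat-based medium and treated at 2 to 18 cm (1- to 4-leaf stage). After 13 to 15 d in a greenhouse, injury was visually rated 0–100 against controls.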

[2] = test system: blackgrass (Alopecurus myosuroides)
Method in brief: as §1

[3] = test system: johnsongrass (Sorghum halepense)
Method in brief: as §1

[4] = test system: pigweed (Amaranthus retroflexus)
Method in brief: as §1

[5] = test system: morningglory (Ipomoea coccinea)
Method in brief: as §1

[6] = test system: lambsquarters (Chenopodium album)
Method in brief: as §1

[7] = test system: oilseed rape (Brassica napus)
Method in brief: as §1

[8] = test system: nutsedge, yellow (yellow nutsedge, Cyperus esculentus)
Method in brief: as §1

[9] = test system: waterhemp (common waterhemp, Amaranthus rudis)
Method in brief: as §1

[10] = test system: wheat (winter wheat, Triticum aestivum)
Method in brief: as §1

[11] = test system: foxtail, giant (giant foxtail, Setaria faberii)
Method in brief: as §1

[12] = test system: corn (Zea mays)
Method in brief: as §1

[13] = test system: ryegrass, Italian (Italian ryegrass, Lolium multiflorum)
Method in brief: as §1

[14] = test system: crabgrass, large (large crabgrass, Digitaria sanguinalis)
Method in brief: as §1

[15] = test system: galium (catchweed bedstraw, Galium aparine)
Method in brief: as §1

[16] = test system: velvetleaf (Abutilon theophrasti)
Method in brief: as §1

[17] = Postemergence, 31 g ai/ha, 0 to 100 scale (0 no effect, 100 complete control)
[18] = Postemergence, 125 g ai/ha, scale 0 to 100, 0 is no effect, 100 is complete control
[19] = Postemergence, 250 g ai/ha, scale 0 to 100, 0 no effect, 100 complete control, 13 to 15 d
[20] = Preemergence, 31 g ai/ha, scale 0 to 100, 0 is no effect, 100 is complete control
[21] = Preemergence, 62 g ai/ha, scale 0 to 100, 0 is no effect, 100 is complete control
[22] = Preemergence, 125 g ai/ha, scale 0 to 100, 0 is no effect, 100 is complete control
[23] = Preemergence, 250 g ai/ha, scale 0 to 100 (0 no effect, 100 complete control)
[24] = postemergence, 62 g ai/ha, scale 0 to 100, 0 no effect, 100 complete control

## Cc1cc(C)c2sc(C)c(-c3c(OC(=O)OC(C)C)c(C)nn(C)c3=O)c2c1 [Compound 67]
[1]; [17]
  Soybean plant response rating: 5
[1]; [18]
  Plant response rating, Soybean: 5
[1]; [19]
  Plant response rating, Soybean: 10
[1]; [20]
  Plant response rating, Soybean: 0
[1]; [21]
  Plant response rating, Soybean: 0
[1]; [22]
  Plant response rating, Soybean: 0
[1]; [23]
  Soybean plant response rating: 0
[1]; [24]
  Soybean plant response rating: 5
[2]; [17]
  Blackgrass plant response rating: 40
[2]; [18]
  Plant response rating, Blackgrass: 65
[2]; [19]
  Plant response rating, Blackgrass: 80
[2]; [20]
  Plant response rating, Blackgrass: 60
[2]; [21]
  Plant response rating, Blackgrass: 30
[2]; [22]
  Plant response rating, Blackgrass: 40
[2]; [23]
  Blackgrass plant response rating: 60
[2]; [24]
  Blackgrass plant response rating: 60
[3]; [17]
  Johnsongrass plant response rating: 5
[3]; [18]
  Plant response rating, Johnsongrass: 5
[3]; [19]
  Plant response rating, Johnsongrass: 10
[3]; [20]
  Plant response rating, Johnsongrass: 10
[3]; [21]
  Plant response rating, Johnsongrass: 20
[3]; [22]
  Plant response rating, Johnsongrass: 10
[3]; [23]
  Johnsongrass plant response rating: 30
[3]; [24]
  Johnsongrass plant response rating: 5
[4]; [17]
  Pigweed plant response rating: 100
[4]; [18]
  Plant response rating, Pigweed: 80
[4]; [19]
  Plant response rating, Pigweed: 85
[4]; [20]
  Plant response rating, Pigweed: 75
[4]; [21]
  Plant response rating, Pigweed: 90
[4]; [22]
  Plant response rating, Pigweed: 95
[4]; [23]
  Pigweed plant response rating: 100
[4]; [24]
  Pigweed plant response rating: 85
[5]; [17]
  Morningglory plant response rating: 95
[5]; [18]
  Plant response rating, Morningglory: 100
[5]; [19]
  Plant response rating, Morningglory: 100
[5]; [20]
  Plant response rating, Morningglory: 70
[5]; [21]
  Plant response rating, Morningglory: 80
[5]; [22]
  Plant response rating, Morningglory: 80
[5]; [23]
  Morningglory plant response rating: 90
[5]; [24]
  Morningglory plant response rating: 95
[6]; [17]
  Lambsquarters plant response rating: 85
[6]; [18]
  Plant response rating, Lambsquarters: 90
[6]; [19]
  Plant response rating, Lambsquarters: 100
[6]; [20]
  Plant response rating, Lambsquarters: 80
[6]; [21]
  Plant response rating, Lambsquarters: 80
[6]; [22]
  Plant response rating, Lambsquarters: 85
[6]; [23]
  Lambsquarters plant response rating: 85
[6]; [24]
  Lambsquarters plant response rating: 95
[7]; [17]
  Oilseed Rape plant response rating: 40
[7]; [18]
  Plant response rating, Oilseed Rape: 75
[7]; [19]
  Plant response rating, Oilseed Rape: 75
[7]; [20]
  Plant response rating, Oilseed Rape: 0
[7]; [21]
  Plant response rating, Oilseed Rape: 0
[7]; [22]
  Plant response rating, Oilseed Rape: 0
[7]; [23]
  Oilseed Rape plant response rating: 20
[7]; [24]
  Oilseed Rape plant response rating: 50
[8]; [17]
  Nutsedge, Yellow plant response rating: 65
[8]; [18]
  Plant response rating, Nutsedge, Yellow: 80
[8]; [19]
  Plant response rating, Nutsedge, Yellow: 85
[8]; [20]
  Plant response rating, Nutsedge, Yellow: 10
[8]; [21]
  Plant response rating, Nutsedge, Yellow: 20
[8]; [22]
  Plant response rating, Nutsedge, Yellow: 55
[8]; [23]
  Nutsedge, Yellow plant response rating: 70
[8]; [24]
  Nutsedge, Yellow plant response rating: 70
[9]; [17]
  Waterhemp plant response rating: 60
[9]; [18]
  Plant response rating, Waterhemp: 75
[9]; [19]
  Plant response rating, Waterhemp: 70
[9]; [20]
  Plant response rating, Waterhemp: 70
[9]; [21]
  Plant response rating, Waterhemp: 80
[9]; [22]
  Plant response rating, Waterhemp: 65
[9]; [23]
  Waterhemp plant response rating: 85
[9]; [24]
  Waterhemp plant response rating: 70
[10]; [17]
  Wheat plant response rating: 0
[10]; [18]
  Plant response rating, Wheat: 0
[10]; [19]
  Plant response rating, Wheat: 0
[10]; [20]
  Plant response rating, Wheat: 0
[10]; [21]
  Plant response rating, Wheat: 0
[10]; [22]
  Plant response rating, Wheat: 0
[10]; [23]
  Wheat plant response rating: 0
[10]; [24]
  Wheat plant response rating: 0
[11]; [17]
  Foxtail, Giant plant response rating: 70
[11]; [18]
  Plant response rating, Foxtail, Giant: 80
[11]; [19]
  Plant response rating, Foxtail, Giant: 85
[11]; [20]
  Plant response rating, Foxtail, Giant: 75
[11]; [21]
  Plant response rating, Foxtail, Giant: 80
[11]; [22]
  Plant response rating, Foxtail, Giant: 98
[11]; [23]
  Foxtail, Giant plant response rating: 100
[11]; [24]
  Foxtail, Giant plant response rating: 75
[12]; [17]
  Corn plant response rating: 5
[12]; [18]
  Plant response rating, Corn: 10
[12]; [19]
  Plant response rating, Corn: 20
[12]; [20]
  Plant response rating, Corn: 0
[12]; [21]
  Plant response rating, Corn: 0
[12]; [22]
  Plant response rating, Corn: 0
[12]; [23]
  Corn plant response rating: 0
[12]; [24]
  Corn plant response rating: 5
[13]; [17]
  Ryegrass, Italian plant response rating: 80
[13]; [18]
  Plant response rating, Ryegrass, Italian: 85
[13]; [19]
  Plant response rating, Ryegrass, Italian: 85
[13]; [20]
  Plant response rating, Ryegrass, Italian: 30
[13]; [21]
  Plant response rating, Ryegrass, Italian: 40
[13]; [22]
  Plant response rating, Ryegrass, Italian: 85
[13]; [23]
  Ryegrass, Italian plant response rating: 90
[13]; [24]
  Ryegrass, Italian plant response rating: 80
[14]; [17]
  Crabgrass, Large plant response rating: 35
[14]; [18]
  Plant response rating, Crabgrass, Large: 35
[14]; [19]
  Plant response rating, Crabgrass, Large: 40
[14]; [20]
  Plant response rating, Crabgrass, Large: 10
[14]; [21]
  Plant response rating, Crabgrass, Large: 70
[14]; [22]
  Plant response rating, Crabgrass, Large: 10
[14]; [23]
  Crabgrass, Large plant response rating: 65
[14]; [24]
  Crabgrass, Large plant response rating: 35
[15]; [17]
  Galium plant response rating: 90
[15]; [18]
  Plant response rating, Galium: 95
[15]; [19]
  Plant response rating, Galium: 90
[15]; [20]
  Plant response rating, Galium: 70
[15]; [21]
  Plant response rating, Galium: 90
[15]; [22]
  Plant response rating, Galium: 90
[15]; [23]
  Galium plant response rating: 90
[15]; [24]
  Galium plant response rating: 95
[16]; [17]
  Velvetleaf plant response rating: 70
[16]; [18]
  Plant response rating, Velvetleaf: 85
[16]; [19]
  Plant response rating, Velvetleaf: 98
[16]; [20]
  Plant response rating, Velvetleaf: 10
[16]; [21]
  Plant response rating, Velvetleaf: 35
[16]; [22]
  Plant response rating, Velvetleaf: 60
[16]; [23]
  Velvetleaf plant response rating: 75
[16]; [24]
  Velvetleaf plant response rating: 85
